Laboratory results: patent publication US12459951B2, “Compounds that interact with RAS superfamily proteins for treatment of cancers, inflammatory diseases, rasopathies, and fibrotic disease” (SHY Therapeutics, LLC, priority 2022, dated 2025)

Experiments:
TNF-alpha = TNF-alpha Quantification Assay (ELISA), LPS-stimulated RAW 264.7; assay type: cell-based; conditions: Mus musculus, RAW264.7; at 10 μM; read-out: TNFα: % inh.
Erk1/2 phosphorylation = experiment: Erk1/2 Phosphorylation Assay (western blot), Panc-1; assay type: cell-based, human; conditions: at 10 μM, * = activation
In short: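 Phospho-Erk1/2 (Thr202/Tyr204) was detected by western blot in lysates of Panc-1 cells (KRas G12D). These had 6 h, 37° C exposure to 10 μM compound or a dilution series for IC50, in 0.3% DMSO. Cells were either starved overnight in 0.5% FBS with a 15-min 1.5 ng/ml EGF pulse, or kept unstimulated in 10% FBS.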

MAPK p38 phosphorylation = experiment: MAPK p38 Activation Assay (western blot), Panc-1; assay type: cell-based, human; conditions: at 10 μM, Panc-1 pancreatic cancer cell line; starred symbols = activation
Procedure: Protocol for MAPK p38 Activation Assay
This assay is referred to as the “MAPK p38 Activation Assay” throughout this application.
Cell lines: Human tumor-derived pancreatic cancer cell line Panc-1 (expressing KRas G12D mutant) was purchased from American Type Culture Collection and grown in complete DMEM-High Glucose medium, supplemented with penicillin (100 U/mL), streptomycin (100 μg/mL), and 10% heat-inactivated FBS at 37° C. in a humidified incubator with 5% CO2.
Method 1: Cells were plated at 350000 cells/well density in a 12-well plate, allowed 3 hours to adhere to the plate, then starved in the appropriate medium in the presence of 0.5% FBS overnight. The small molecules to be tested were added to the cells in the final concentration of 10 μM in the presence of 0.3% DMSO for 6 hours incubation at 37° C. For IC50 value determination, serial dilutions of compounds were added to cells under the same conditions. Next, cells were stimulated with 1.5 ng/ml EGF for 15 minutes then cells were lysed with lysis buffer containing 1% Triton X-100, EDTA, and Halt™ Protease & Phosphatase Inhibitor Cocktail (Thermo Scientific). Protein concentration was assessed by BCA protein assay (Thermo Scientific). Phosphorylation level of MAPK p38 was determined by western blot.
Method 2: Cells were plated at 350000 cells/well density in a 12-well plate in 10% FBS. The next day small molecules to be tested were added to the cells in the final concentration of 10 μM in the presence of 0.3% DMSO for 6 hours incubation at 37° C. For IC50 value determination, serial dilutions of compounds were added to cells under the same conditions. Next, cells were lysed with lysis buffer containing 1% Triton X-100, EDTA, and Halt™ Protease & Phosphatase Inhibitor Cocktail (Thermo Scientific). Protein concentration was assessed by BCA protein assay (Thermo Scientific). Phosphorylation level of MAPK p38 was determined by western blot.
Western blot protocol: Equal amounts of protein (15-50 μg) were separated by SDS-PAGE and transferred to nitrocellulose membranes (Invitrogen by Thermo Fisher Scientific). The membrane was stained with Ponceau S Stain (Boston BioProducts) to verify uniform protein loading. Membranes were blocked with 10% milk and phosphorylation levels of MAPK p38 were assessed by incubating overnight at 4° C. with the following antibody: Phospho-p38 MAPK (Thr180/Tyr182), from Cell Signaling Technology. Then the membranes were incubated with HRP-conjugated secondary antibody (Jackson Immunoresearch, West Grove, PA). Bands were incubated in Amersham ECL Prime Western Blotting Detection Reagent (GE Healthcare) and visualized using the ChemiDoc MP imaging system (Bio-Rad).

For `CO[C@H]1C[C@@H](Nc2nc(-c3nccn3C)nn3cc(-c4ccncc4)c(-c4ccccc4)c23)C1` [Compound 198, N-((1s,3s)-3-Methoxycyclobutyl)-2-(1-methyl-1H-imidazol-2-yl)-5-phenyl-6-(pyridin-4-yl)pyrrolo[2,1-f][1,2,4]triazin-4-amine], the inhibition at 10 µM (TNF-alpha) was 25 to 49%, the “% inh of Erk1/2 phosphorylation in Panc-1” value (Erk1/2 phosphorylation) was “D* (85-100% activation)” and the “% inh of MAPK p38 in Panc-1” value (MAPK p38 phosphorylation) was “E (E = 1-30% inhibition)”.

`CO[C@H]1C[C@H](Nc2nc(-c3nccn3C)nn3cc(-c4cnccc4C)c(-c4ccccc4)c23)C1` [Compound 218, N-((1r,3r)-3-Methoxycyclobutyl)-2-(1-methyl-1H-imidazol-2-yl)-6-(4-methylpyridin-3-yl)-5-phenylpyrrolo[2,1-f][1,2,4]triazin-4-amine] was tested, and the inhibition at 10 µM (TNF-alpha) was 1 to 24%, the “% inh of Erk1/2 phosphorylation in Panc-1” value (Erk1/2 phosphorylation) was “D* (85-100% activation)” and the “% inh of MAPK p38 in Panc-1” value (MAPK p38 phosphorylation) was “F* (F* = 31-74% activation)”.

With `CO[C@H]1C[C@H](Nc2nc(-c3nccn3C)nn3cc(-c4ccc(CCN)cc4)c(-c4ccccc4)c23)C1.Cl` [Compound 207, 6-(4-(2-Aminoethyl)phenyl)-N-((1r,3r)-3-methoxycyclobutyl)-2-(1-methyl-1H-imidazol-2-yl)-5-phenylpyrrolo[2,1-f][1,2,4]triazin-4-amine hydrochloride salt] the inhibition at 10 µM (TNF-alpha) was 75 to 100%, the “% inh of Erk1/2 phosphorylation in Panc-1” value (Erk1/2 phosphorylation) was “D* (85-100% activation)” and the “% inh of MAPK p38 in Panc-1” value (MAPK p38 phosphorylation) was “H (H = 100% inhibition)”.

For `CO[C@H]1CC[C@@H](Nc2nc(-c3nccn3C)nn3cc(-c4ccncc4)c(-c4ccccc4)c23)C1` (racemic) [Compound 200, rac N-((1R,3S)-3-Methoxycyclopentyl)-2-(1-methyl-1H-imidazol-2-yl)-5-phenyl-6-(pyridin-4-yl)pyrrolo[2,1-f][1,2,4]triazin-4-amine], the inhibition at 10 µM (TNF-alpha) was 1 to 24%, the “% inh of Erk1/2 phosphorylation in Panc-1” value (Erk1/2 phosphorylation) was “D* (85-100% activation)” and the “% inh of MAPK p38 in Panc-1” value (MAPK p38 phosphorylation) was “E (E = 1-30% inhibition)”.

For `CO[C@H]1C[C@H](Nc2nc(-c3nccn3C)nn3cc(-c4ccc(OCCN)cc4)c(-c4ccccc4)c23)C1.Cl` [Compound 208, 6-(4-(2-Aminoethoxy)phenyl)-N-((1r,3r)-3-methoxycyclobutyl)-2-(1-methyl-1H-imidazol-2-yl)-5-phenylpyrrolo[2,1-f][1,2,4]triazin-4-amine hydrochloride salt], the inhibition at 10 µM (TNF-alpha) was 25 to 49%, the “% inh of Erk1/2 phosphorylation in Panc-1” value (Erk1/2 phosphorylation) was “C* (46-84% activation)” and the “% inh of MAPK p38 in Panc-1” value (MAPK p38 phosphorylation) was “G (G = 75-99% inhibition)”.

`COC[C@@H]1CC[C@@H]1CNc1nc(-c2ccccn2)nn2cc(-c3ccn(C(C)C)n3)c(C)c12` (racemic) [Compound 11, rac 6-(1-Isopropyl-1H-pyrazol-3-yl)-N-(((1S,2R)-2-(methoxymethyl)cyclobutyl)methyl)-5-methyl-2-(pyridin-2-yl)pyrrolo[2,1-f][1,2,4]triazin-4-amine] was tested, and the inhibition at 10 µM (TNF-alpha) was 0%, the “% inh of Erk1/2 phosphorylation in Panc-1” value (Erk1/2 phosphorylation) was 0 (0% inhibition) and the “% inh of MAPK p38 in Panc-1” value (MAPK p38 phosphorylation) was “G* (G* = 75-99% activation)”.

In the case of `CO[C@H]1C[C@H](Nc2nc(-c3nccn3C)nn3cc(-c4cccc(CN)c4)c(-c4ccccc4)c23)C1` [Compound 204, 6-(3-(aminomethyl)phenyl)-N-((1r,3r)-3-methoxycyclobutyl)-2-(1-methyl-1H-imidazol-2-yl)-5-phenylpyrrolo[2,1-f][1,2,4]triazin-4-amine], the inhibition at 10 µM (TNF-alpha) is reported as 25 to 49%, the “% inh of Erk1/2 phosphorylation in Panc-1” value (Erk1/2 phosphorylation) is reported as “D* (85-100% activation)” and the “% inh of MAPK p38 in Panc-1” value (MAPK p38 phosphorylation) is reported as “E (E = 1-30% inhibition)”.

For `COc1cccc(Nc2nc(-c3ccccn3)nn3cc(-c4ccn(C(C)C)n4)c(C)c23)n1` [Compound 14, 6-(1-Isopropyl-1H-pyrazol-3-yl)-N-(6-methoxypyridin-2-yl)-5-methyl-2-(pyridin-2-yl)pyrrolo[2,1-f][1,2,4]triazin-4-amine], the inhibition at 10 µM (TNF-alpha) was 0%, the “% inh of Erk1/2 phosphorylation in Panc-1” value (Erk1/2 phosphorylation) was 0 (0% inhibition) and the “% inh of MAPK p38 in Panc-1” value (MAPK p38 phosphorylation) was “H* (H* ≥ 100% activation)”.

In the case of `Cc1c(-c2ccn(C)n2)cn2nc(-c3nccn3C)nc(Nc3cc4c(cn3)CCO4)c12` [Compound 221, N-(5-Methyl-2-(1-methyl-1H-imidazol-2-yl)-6-(1-methyl-1H-pyrazol-3-yl)pyrrolo[2,1-f][1,2,4]triazin-4-yl)-2,3-dihydrofuro[3,2-c]pyridin-6-amine], the inhibition at 10 µM (TNF-alpha) is reported as 0%, the “% inh of Erk1/2 phosphorylation in Panc-1” value (Erk1/2 phosphorylation) is reported as “A* (1-25% activation)” and the “% inh of MAPK p38 in Panc-1” value (MAPK p38 phosphorylation) is reported as “E (E = 1-30% inhibition)”.

In the case of `CO[C@H]1C[C@H](Nc2nc(-c3nccn3C)nn3cc(-c4ccncc4)c(-c4ccccc4)c23)C1` [Compound 199, N-((1r,3r)-3-Methoxycyclobutyl)-2-(1-methyl-1H-imidazol-2-yl)-5-phenyl-6-(pyridin-4-yl)pyrrolo[2,1-f][1,2,4]triazin-4-amine], the inhibition at 10 µM (TNF-alpha) is reported as 1 to 24%, the “% inh of Erk1/2 phosphorylation in Panc-1” value (Erk1/2 phosphorylation) is reported as “D* (85-100% activation)” and the “% inh of MAPK p38 in Panc-1” value (MAPK p38 phosphorylation) is reported as “E (E = 1-30% inhibition)”.

In the case of `COc1ccnc(Nc2nc(-c3nccn3C)nn3cc(-c4c(F)cccc4OC)c(-c4ccccc4)c23)c1` [Compound 217, 6-(2-Fluoro-6-methoxyphenyl)-N-(4-methoxypyridin-2-yl)-2-(1-methyl-1H-imidazol-2-yl)-5-phenylpyrrolo[2,1-f][1,2,4]triazin-4-amine], the inhibition at 10 µM (TNF-alpha) is reported as 25 to 49%, the “% inh of Erk1/2 phosphorylation in Panc-1” value (Erk1/2 phosphorylation) is reported as “D* (85-100% activation)” and the “% inh of MAPK p38 in Panc-1” value (MAPK p38 phosphorylation) is reported as “F (F = 31-74% inhibition)”.

With `CO[C@H]1CC[C@H](Nc2nc(-c3nccn3C)nn3cc(-c4ccncc4)c(-c4ccccc4)c23)C1` (racemic) [Compound 201, rac N-((1S,3S)-3-Methoxycyclopentyl)-2-(1-methyl-1H-imidazol-2-yl)-5-phenyl-6-(pyridin-4-yl)pyrrolo[2,1-f][1,2,4]triazin-4-amine] the inhibition at 10 µM (TNF-alpha) was 50 to 74%, the “% inh of Erk1/2 phosphorylation in Panc-1” value (Erk1/2 phosphorylation) was “D* (85-100% activation)” and the “% inh of MAPK p38 in Panc-1” value (MAPK p38 phosphorylation) was “E (E = 1-30% inhibition)”.

`COC1CCCN(c2nc(-c3ccccn3)nn3cc(-c4ccn(C(C)C)n4)c(C)c23)C1` (racemic) [Compound 12, rac 6-(1-Isopropyl-1H-pyrazol-3-yl)-4-(3-methoxypiperidin-1-yl)-5-methyl-2-(pyridin-2-yl)pyrrolo[2,1-f][1,2,4]triazine] was tested, and the inhibition at 10 µM (TNF-alpha) was 0%, the “% inh of Erk1/2 phosphorylation in Panc-1” value (Erk1/2 phosphorylation) was 0 (0% inhibition) and the “% inh of MAPK p38 in Panc-1” value (MAPK p38 phosphorylation) was “H* (H* ≥ 100% activation)”.

With `CO[C@H]1C[C@H](Nc2nc(-c3nccn3C)nn3cc(-c4cccc5c4CCO5)c(-c4ccccc4)c23)C1` [Compound 210, 6-(2,3-Dihydrobenzofuran-4-yl)-N-((1r,3r)-3-methoxycyclobutyl)-2-(1-methyl-1H-imidazol-2-yl)-5-phenylpyrrolo[2,1-f][1,2,4]triazin-4-amine] the inhibition at 10 µM (TNF-alpha) was 75 to 100%, the “% inh of Erk1/2 phosphorylation in Panc-1” value (Erk1/2 phosphorylation) was “D (85-100% inhibition)” and the “% inh of MAPK p38 in Panc-1” value (MAPK p38 phosphorylation) was “G (G = 75-99% inhibition)”.

For `COc1cc(Nc2nc(-c3ccccn3)nn3cc(-c4ccn(C(C)C)n4)c(C)c23)ncn1` [Compound 13, 6-(1-Isopropyl-1H-pyrazol-3-yl)-N-(6-methoxypyrimidin-4-yl)-5-methyl-2-(pyridin-2-yl)pyrrolo[2,1-f][1,2,4]triazin-4-amine], the inhibition at 10 µM (TNF-alpha) was 0%, the “% inh of Erk1/2 phosphorylation in Panc-1” value (Erk1/2 phosphorylation) was 0 (0% inhibition) and the “% inh of MAPK p38 in Panc-1” value (MAPK p38 phosphorylation) was “H* (H* ≥ 100% activation)”.
